Measurements: US20250027079A1 (priority 2020, published 2025)
Where a name gives a salt, the structure may show the parent alone. Read-outs that look alike come from different tables or passages of the source. {AF594} = Alexa Fluor 594 dye

What was measured:
[1] = tested on: CLso; type: in vivo, Candidatus Liberibacter solanacearum; settings: for foliar disease symptoms (foliar symptom ranking) / products with the greatest foliar symptom reduction: 8 week trial; for foliar disease symptoms (foliar symptom ranking): soil application (FIG. 11B); for products with the greatest foliar symptom reduction: comparison among all products (FIG. 11B); for tuber disease symptoms (proportion of symptomatic tubers) compared to CLso infected Control tubers: 8 week trial (FIG. 11C)
[2] = tested on: D. citri adults; set-up: species or system Diaphorina citri; settings: in vivo
[3] = tested on: CLso; type: in vivo, Candidatus Liberibacter solanacearum; settings: CLso infected potato, soil applied drench, one gallon pots (FIG. 8); infected untreated control ave. 39, uninfected healthy 66 cm
[4] = tested on: CLas; type: in vivo, Candidatus Liberibacter asiaticus
[5] = tested on: CLas; type: in vivo, Candidatus Liberibacter asiaticus; remark: listed apart in the source
[6] = tested on: CLas; type: in vivo, Candidatus Liberibacter asiaticus; settings: for Liberibacter repression (percent change in CLas titer): CLas-infected Citrus trees, root infusion 5 mL of 5 μM; for effect on quantity of the bacterium (Liberibacter titer) in infected Citrus trees: FANA 5 μM, streptomycin sulfate 5 mg/mL, sampling 2, 7, 14, 30 days (FIG. 5)
[7] = tested on: CLas LigA gene; type: in vivo, Candidatus Liberibacter asiaticus
[8] = tested on: wDi gyrA gene; type: cell-based, Wolbachia-Diaphorina
[9] = tested on: wDi cells

TAGTTCCGATTTGTATGCATC (FANA modification, further chemistry not given here) [CLsoDnaB-6, FANA ASO, CLso DnaB-Helicase C]
foliar disease symptoms (foliar symptom ranking) [1]: significantly reduced

GCATCATTATTCACTAGGATAG (FANA modification, further chemistry not given here) [CLsoDNAB-1, FANA ASO, CLso DnaB-Helicase C]
products with the greatest foliar symptom reduction [1]: most symptom reduction | foliar disease symptoms (foliar symptom ranking) [1]: significantly reduced

CGATTAAAAGCTTGTCCAGCC (FANA modification, further chemistry not given here) [CLsoDNAB-3, FANA ASO, CLso DnaB-Helicase C]
foliar disease symptoms (foliar symptom ranking) [1]: significantly reduced

fluorophore-tagged FANA oligo control: FANA ASO with scramble sequence [SEQ ID NO: 1 and SEQ ID NO: 2] tagged with Alexa Fluor 594 at its 5′ end (chain 1 ACTGGGATACGACAAGGATAT; chain 2 TCTTGGAACAGCATAGGGACA; 5' {AF594}, sugars by position and backbone not given here; FANA ASO)
localization of the oligo in psyllid alimentary canal [2]: detected mainly in the psyllid esophagus, filter chamber and anterior midgut

GATTGAAGGGCAGGGGAATTC (chemistry not given here)
foliar disease symptoms (foliar symptom ranking) [1]: significantly reduced

TTGTCCAGCCATATCAATAGC (FANA modification, further chemistry not given here) [CLsoDnaB-5, FANA ASO, CLso DnaB-Helicase C]
foliar disease symptoms (foliar symptom ranking) [1]: significantly reduced

ATAACCTTGACGATCTGATTC (FANA modification, further chemistry not given here) [CLso-2 Gyr-Ext-2, FANA ASO, CLso Gyrase-A]
plant growth, average height [3]: 51 centimeters | products with the greatest foliar symptom reduction [1]: most symptom reduction | foliar disease symptoms (foliar symptom ranking) [1]: significantly reduced

CGGCACAGCAATTAGAACGTC (FANA modification, further chemistry not given here) [LigA-FANA, FANA antisense oligo designed to target the CLas NAD-dependent DNA Ligase A gene]
success of treated psyllids in transmitting the pathogen into citrus plants compared to untreated insects ([4]; psyllids treated seven days, 15 days inoculation access on Citrus macrophylla seedlings, p=0.018): less successful in transmitting the pathogen | CLas copy number detected in the citrus plants exposed to the treated psyllids ([4]; seedlings sampled three months later (FIG. 7)): significantly lower | CLas density (copy number) in psyllids ([5]; D. citri adults, artificial diet 5 μM, seven days post-treatment, qPCR of 16S rRNA gene (FIG. 4), versus untreated psyllids): significantly lower | Liberibacter repression (percent change in CLas titer) ([6]; seven days post treatment (FIG. 5)): 51.6% | Liberibacter repression (percent change in CLas titer) ([6]; two days post treatment (FIG. 5)): 81% | persistence of the suppression effect ([6]; root infusion, sampling period): 30 days | effect on quantity of the bacterium (Liberibacter titer) in infected Citrus trees ([6]; root infusion): significantly reduced | decrease of expression of the bacterial target gene (CLas LigA) compared to untreated psyllids ([7]; D. citri adults fed on excised Citrus leaves that took up 5 μM FANA solution, seven days, qRT-PCR (FIG. 2B)): 75% | CLas LigA transcript level compared to insects treated with the scramble control ([7]; D. citri adults, 5 μM via leaves, seven days, p=0.009): significantly lower

GAAGAACGGGCGAACTTTTTG (chemistry not given here) [L. solanacearum CLso2 -GyrA host Potato]
plant growth, average height [3]: 51 centimeters | foliar disease symptoms (foliar symptom ranking) [1]: significantly reduced

GGGAATATTCGTCGCCATACC (FANA modification, further chemistry not given here) [CLso-4Gyr, FANA ASO, CLso Gyrase A]
foliar disease symptoms (foliar symptom ranking) [1]: significantly reduced

TATTACGATAGATCCTCGACC (FANA modification, further chemistry not given here) [CLso-2Gyr-Ext-3, FANA ASO, CLso Gyrase A]
foliar disease symptoms (foliar symptom ranking) [1]: significantly reduced

TGTATATGCGAGGACATCGTC (FANA modification, further chemistry not given here) [CLso-DnaB-7, FANA ASO, CLso DnaB-Helicase C]
foliar disease symptoms (foliar symptom ranking) [1]: significantly reduced

TATGGAAACAGCCTCAGATGC (FANA modification, further chemistry not given here) [CLsoDNAB-2, FANA ASO, CLso DnaB-Helicase C]
tuber disease symptoms (proportion of symptomatic tubers) compared to CLso infected Control tubers [1]: significantly reduced | foliar disease symptoms (foliar symptom ranking) [1]: significantly reduced

[H]/N=C(/N)N[C@H]1[C@H](O)[C@@H](O)[C@H](O[C@@H]2O[C@@H](C)[C@](O)(C=O)[C@H]2O[C@@H]2O[C@@H](CO)[C@H](O)[C@@H](O)[C@@H]2NC)[C@@H](N/C(N)=N\[H])[C@@H]1O [streptomycin sulfate, reference compound]
effect on quantity of the bacterium (Liberibacter titer) in infected Citrus trees ([6]; root infusion): did not significantly reduced

CATTTTGTATATGCGAGGACA (FANA modification, further chemistry not given here) [CLsoDNAB-4, FANA ASO, CLso DnaB-Helicase C]
tuber disease symptoms (proportion of symptomatic tubers) compared to CLso infected Control tubers [1]: significantly reduced | foliar disease symptoms (foliar symptom ranking) [1]: significantly reduced

AATAAACGCAATGACCAATCC (FANA modification, further chemistry not given here) [CLso-1 GyrA-Ext-1, FANA ASO, CLso Gyrase-A]
plant growth, average height [3]: 51 centimeters | foliar disease symptoms (foliar symptom ranking) [1]: significantly reduced

AUAUCCTTGTCGTATCCCAGU (FANA modification, further chemistry not given here) [scramble control FANA, reference compound]
CLas density (copy number) in psyllids ([5]; in vivo): No difference | amount of CLas LygA mRNA versus untreated psyllids ([7]; in vivo): no significant difference | expression of the wDi gyrA gene versus untreated cells [8]: No significant difference | number of viable wDi cells (wDi copy number, PMA-qPCR) [9]: high wDi copy number | toxicity of the FANA chemistry to the bacterial cells or the Drosophila S2 cells [9]: not toxic

TGGTATGGCAACCAATATTCC (FANA modification, further chemistry not given here) [gyrA-FANA]
reduction in the amount of the target mRNA (wDi gyrA) compared to untreated cells ([8]; S2-wDi cells, 5 μM, seven days post-treatment, qRT-PCR (FIG. 2A)): 30% | wDi gyrA transcript level compared to cells treated with the scramble control ([8]; S2-wDi cells, 5 μM, seven days, p=0.009): significantly lower | number of viable wDi cells (wDi copy number, PMA-qPCR) ([9]; isolated wDi cells, 5 μM, four days, versus untreated or scramble control (FIG. 3)): greatly reduced

CAAATCAGGTATAGCACGGCC (FANA modification, further chemistry not given here) [CLso-2Gyr, FANA ASO, CLso Gyrase A]
foliar disease symptoms (foliar symptom ranking) [1]: significantly reduced

TTCTATCAGGGTAAATCGCTC (FANA modification, further chemistry not given here) [CLso-2 Gyr-Ext-4, FANA ASO, CLso Gyrase-A]
plant growth, average height [3]: 51 centimeters | tuber disease symptoms (proportion of symptomatic tubers) compared to CLso infected Control tubers [1]: significantly reduced | foliar disease symptoms (foliar symptom ranking) [1]: significantly reduced
